Reference: patent US20030099674A1 (priority 2001, published 2003)
Read-outs that look alike come from different tables or passages of the source.

Key:
[1] = Stability of paclitaxel in solutions containing oil and soy lecithin (HPLC purity); type: physicochemical
Method: The ethanol solution was mixed with the selected oil. […] The resulting oil solutions were sealed in glass vials and stored at 40° C. or at 60° C.

[2] = Paclitaxel emulsion stability study #2: effect of pH, dry vs liquid emulsions at 40° C.; type: physicochemical; details: pH 4.0 to 8.9, stored at 40° C., HPLC
Method: These tests were conducted to select optimal pH's for a dry paclitaxel emulsion.
The fine emulsion was divided into 5 portions. The pH of each portion was adjusted to pH 4.0, 5.6, 6.6, 7.8 or 8.9 using 0.2 N HCl or 0.2 N NaOH solution. Average droplet size of each pH adjusted emulsion was determined using LLS.
The stability evaluation included both dry and liquid emulsions (pre-lyophilization) at each pH. These emulsions were stored sealed in glass vials at 40° C.

[3] = no lecithin, 24 hours at 25° C.
Method: The mixtures were agitated for 24 hours at 25° C., and were then filtered through a 0.2 micron filter.

[4] = in the dry emulsions of MCT or sesame oil at a storage temperature of 25° C. or below
Method: At each time point including the time 0, a vial was removed from each stability temperature chamber and reconstituted with 0.2 ml deionized water to reform the emulsion.
Along with the dry emulsion samples, the liquid emulsion samples (pre-lyophilization) were also included in this study. The liquid emulsions were stored at −20° C.

Stability of paclitaxel in dry versus liquid emulsions [2]: more stable than in the liquid emulsions | Solubility at 25° C. ([3]; MCT oil (Miglyol 812N)): 40 mg/g of oil | Solubility at 25° C. ([3]; Sesame oil): 5 mg/g of oil | Time paclitaxel is chemically stable [4]: at least 28 days
SMILES: CC(=O)O[C@H]1C(=O)[C@@]2(C)[C@H]([C@H](OC(=O)c3ccccc3)[C@]3(O)C[C@H](OC(=O)[C@H](O)[C@@H](NC(=O)c4ccccc4)c4ccccc4)C(C)=C1C3(C)C)[C@]1(OC(C)=O)CO[C@@H]1C[C@@H]2O [paclitaxel]
Purity (% paclitaxel peak area over total peak area) Day 0 ([1]; Corn oil with soy lecithin): 98.7 % paclitaxel peak area over total peak area | Purity (% paclitaxel peak area over total peak area) Day 0 ([1]; Cottonseed oil with soy lecithin): 98.8 % paclitaxel peak area over total peak area | Purity (% paclitaxel peak area over total peak area) Day 0 ([1]; Ethyl oleate with soy lecithin): 97.0 % paclitaxel peak area over total peak area | Purity (% paclitaxel peak area over total peak area) Day 0 ([1]; Miglyol 812N with soy lecithin): 99.3 % paclitaxel peak area over total peak area | Purity (% paclitaxel peak area over total peak area) Day 0 ([1]; Safflower oil with soy lecithin): 98.0 % paclitaxel peak area over total peak area | Purity (% paclitaxel peak area over total peak area) Day 0 ([1]; Sesame oil + oleic acid, with soy lecithin): 98.5 % paclitaxel peak area over total peak area | Purity (% paclitaxel peak area over total peak area) Day 0 ([1]; Sesame oil + vit E, with soy lecithin): 99.0 % paclitaxel peak area over total peak area | Purity (% paclitaxel peak area over total peak area) Day 0 ([1]; Sesame oil + water, with soy lecithin): 99.1 % paclitaxel peak area over total peak area | Purity (% paclitaxel peak area over total peak area) Day 0 ([1]; Sesame oil with soy lecithin): 99.0 % paclitaxel peak area over total peak area | Purity (% paclitaxel peak area over total peak area) Day 0 ([1]; Sesame oil without soy lecithin): 99.2 % paclitaxel peak area over total peak area | Purity (% paclitaxel peak area over total peak area) Day 0 ([1]; Soybean oil with soy lecithin): 99.4 % paclitaxel peak area over total peak area | Purity (% paclitaxel peak area over total peak area) Day 0 ([1]; Vitamin E with soy lecithin): 96.3 % paclitaxel peak area over total peak area
